Reference: patent US20110245171A1, “REHYDRATION COMPOSITIONS COMPRISING EPIDERMAL GROWTH FACTOR (EGF)” (priority 2004, published 2011)

Key:
Salmonella typhimurium = settings: in vitro, literature; cited from earlier work
[1] = system: jejunal tissue from rabbits infected with attaching-effacing E. coli (RDEC-1); assay: Jejunal 3-O-methyl glucose transport in Ussing chambers; parameters: species or system rabbit
Description: Rabbits infected with attaching-effacing E. coli (RDEC-1) were used (20). Briefly, experimental rabbits (400-600 g) were orally inoculated with 5×10^7 live E. coli in 1 mL 10% sodium bicarbonate. Controls received sodium bicarbonate only. Animals were housed individually in a level B containment room, fed commercial feed and given water ad libitum. Ten days post-infection, all animals were killed with an intra-peritoneal overdose of sodium pentabarbitone following anesthesia with halothane. A 20-cm segment of jejunum beginning 5 cm distal to the ligament of Treitz was then removed and rinsed with ice-cold Kreb's buffer. Both longitudinal and circular muscle layers were stripped from the underlying mucosa and four adjacent pieces of jejunal tissue mounted under short-circuited conditions in Ussing chambers. Both mucosal and serosal surfaces were bathed in 10 ml of oxygenated Kreb's buffer with 10 mM glucose added to the serosal surface to provide metabolic energy to the tissue, 10 mM mannitol added to the mucosal surface to osmotically balance the glucose solution, and 20 mM 3-O-methyl glucose added to both surfaces. Immediately after mounting, 10 μCi 3-O-methyl[^3H]glucose was added to either the serosal or mucosal surface and allowed to equilibrate for 20 min. 3-O-methyl glucose is a non-metabolized glucose analog. Unidirectional mucosal to serosal (Jms) and serosal to mucosal (Jsm) fluxes were then determined by measuring 3 consecutive 5 min flux intervals and an overall 15 min flux interval before and after the addition of 100 ng/ml human recombinant epidermal growth factor (rhEGF) (Austral Biologicals, San Ramon, Calif.) or vehicle to the mucosal reservoir. Net flux (Jnet) was calculated by subtracting the serosal to mucosal flux, Jsm, from the mucosal to serosal flux, Jms. Clinical symptoms were monitored including fecal shedding of the bacterium.

C. parvum = settings: literature; cited from earlier work
[2] = system: pathogenic strains of Escherichia coli; settings: in vitro, literature; cited from earlier work
[3] = system: jejunal nutrient transport; settings: cited from earlier work
Cryptosporidium parvum = settings: in vitro, literature; cited from earlier work
bacteria and protozoa = settings: literature; cited from earlier work
[4] = system: piglets with spontaneous neonatal diarrhea; assay: Spontaneous neonatal diarrhea in piglets, oral EGF; assay type: in vivo
Description: A pregnant sow was purchased from a local commercial supplier (Doug Hall, Airdrie, AB) approximately one week prior to due-date. The sow was housed at the University of Calgary farm in a farrowing pen. The sow was given free access to water and pig feed (Doug Hall, Airdrie, AB). Two-day old piglets were weight ranked and randomly assigned to each experimental group (see below), and treatment was initiated that day (Day 0) and animals assessed 24 hr later. […] Piglets with their sow were housed separately in contained animal facilities for the duration of the experiment at the University of Calgary farm. Housing was at 20° C., with approximate 8:16 h photoperiods.
Piglets were assigned to one of the following experimental groups: 1) untreated animals gavaged orally with 5 mL sterile PBS daily starting on Day 0, and 2) EGF-treated, gavaged orally with rhEGF in 5 mL sterile PBS at a concentration of 100 μg/kg body weight daily starting on Day 0.
The study was terminated on Day 1. A total of 10 piglets were studied, 5 were given EGF, and 5 received vehicle (untreated).
Piglets were checked daily for weight gain, production of diarrhea, and overall clinical condition (alertness, body posture, condition). In addition, daily fecal scoring was carried out twice daily (9:00 am, and 3:00 pm) as follows: 0=solid, formed stools, 1=soft stools with no perineal soiling, 2=non-bloody diarrhea with perineal soiling, 3=bloody diarrhea with perineal soiling.
All morning observations were performed between 7:00 am and 12:00 pm to avoid diurnal variations. One additional fecal scoring was carried out at 3:00 pm.

K88 positive E. coli = assay: Enteropathogenic E. coli infection in piglets, oral EGF; assay type: in vivo
Description: An enteropathogenic Escherichia coli isolate obtained from Veterinary Pathology Laboratories (VPL), Edmonton, Alberta was utilized in these experiments. This strain was originally isolated from a piglet with diarrhea and is positive for Stb, Lt, and K88 (F4). This strain is referred to as K88 positive E. coli. Enteropathogenic E. coli infections produce primarily a malabsorptive diarrhea, although there is a smaller secretory component.
Bacteria were grown in LB™ broth (Difco Laboratories, Detroit, Mich.) and frozen on Microbank™ porous beads (Pro-Labs Diagnostics, Richmond Hill, ON) at −70° C. For each inoculum preparation, one bead was thawed and incubated in 20 ml sterile LB™ broth for 5 h at 37° C., 200 rpm. Then, the 20 ml starter culture was placed in 980 ml LB™ broth and incubated at 37° C. for 15 hours, 200 rpm. LB™ broth was aliquoted in 18 sterile polystyrene 50 ml tubes (Falcon), centrifuged at 3000 rpm (floor Sorval) for 10 minutes, and all pellets pooled and resuspended in 50 ml 10% […]-sterile PBS.
Inoculum: Piglets received late log phase 1×10^10 (counted by spectrophotometry, 600 nm, A=1.9) live K88 positive E. coli. Bacterial inoculum was delivered in 10% NaHCO3/sterile PBS (5 ml), followed by lactate Ringer's solution (5 ml). The inoculum (10 ml) was delivered via a 40 cm orogastric intubation tube connected to a 20 cc syringe. Total bacterial counts in inoculum were calculated via serial dilutions plated onto LB™ agar and incubated overnight at 37° C., 5% CO2.
A pregnant sow was purchased from a local commercial supplier (Doug Hall, Airdrie, AB) approximately one week prior to due-date. The sow was housed at the University of Calgary farm in a farrowing pen. The sow was given free access to water and pig feed (Doug Hall, Airdrie, AB). Two-day old piglets were weight ranked and randomly assigned to each experimental group (see below), and treatment was initiated that day (Day-1). Inoculation with live K88 positive E. coli was carried out the following day (Day 0). […]

enteropathogenic E. coli = settings: literature; cited from earlier work
giardiasis = settings: compared to untreated animals, literature; cited from earlier work
[5] = infected tissue treated with EGF compared to controls
[6] = infected tissue, 10 days post-infection, 100 ng/ml rhEGF on mucosal surface

In the case of “EGF: 53-amino acid human epidermal growth factor of SEQ ID NO: 1; recombinant human EGF used in the experiments”, the “epithelial bacterial translocation and invasion” value (Salmonella typhimurium) is listed as “inhibit”, the “mucosal to serosal 3-O-methyl glucose transport” value [1, 5] is listed as “did not differ” and the “net 3-O-methyl glucose transport” value [1, 5] is listed as “did not differ”. For the same substance, the “mucosal to serosal flux of 3-O-methyl glucose” value [1, 6] was “significantly increased”, the “net flux of 3-O-methyl glucose” value [1, 6] was “significantly increased” and the fecal oocyte passage (C. parvum) was “decreased”. For the same substance, the “epithelial bacterial translocation and invasion” value [2] was “inhibit”, the “SGLT1 content in the microsomal fraction” value [3] was “decrease” and the enterocyte glucose transport [3] was “increase”. The “defect in glucose transport” value ([3]; following administration of octreotide, literature) was “reverse”, the “BBMV SGLT1 content” value ([3]; literature) was “significant increase” and the amino acid transport ([3]; literature) was “rapidly increases”. The “brush border (apical) surface area” value ([3]; literature) was “increase”, the glucose transport ([3]; literature) was “rapidly increases” and the “ileal electroneutral NaCl absorption and brush-border Na+/H+ exchange” value ([3]; literature) was “increase”. For the same substance, the “jejunal glutamine, alanine galactose and glycine transport” value ([3]; literature) was “increase”, the “Vmax for glucose uptake into brush border membrane vesicles (BBMV)” value ([3]; mucosal EGF, literature) was “increased” and the “Vmax for proline uptake into brush border membrane vesicles (BBMV)” value ([3]; mucosal EGF, literature) was “increased”. The epithelial colonization (Cryptosporidium parvum) was “reduce”, the anti-protozoal effect (bacteria and protozoa) was “no direct” and the bactericidal effect (bacteria and protozoa) was “no direct”. The fecal scores ([4]; Day 1, one day after initiation of treatment, rhEGF 100 μg/kg oral, compared with vehicle) was “significantly (P<0.05) reduced”, the “animals that had died” value ([4]; Day 1, 5 piglets given EGF, 2 untreated died) was 1 and the weight gain ([4]; EGF compared to untreated) was “did not differ”. The weight gain (K88 positive E. coli; EGF-treated compared to untreated, over the course of the study) was “did not differ”, the “acceleration of return to normal fecal consistency” value (K88 positive E. coli; compared to untreated animals (day 3 instead of day 4)) was “one day” and the “day by which fecal scores returned to normal (fecal score of 0 in all animals)” value (K88 positive E. coli; rhEGF 100 μg/kg oral gavage daily from Day -1, infected Day 0, untreated: Day 4) was no more than 3 days. The bacterial colonization (enteropathogenic E. coli) was “significantly inhibited”, the “diarrhea and reduced weight gain associated with the disease” value (enteropathogenic E. coli) was “prevented” and the epithelial damage (enteropathogenic E. coli) was “reduced”. For the same substance, the intestinal function (giardiasis) was “enhanced” and the trophozoite colonization (giardiasis) was “inhibited”.

For “TGFα: related peptide that binds to the EGF receptor [reference compound]”, the “brush border (apical) surface area” value ([3]; literature) is listed as “had no effect”, the glucose transport ([3]; literature) is listed as “had no effect” and the small intestinal absorption ([3]; some studies, literature) is listed as “increase”.
